Laboratory results reported in a melting point compilation (Tetko et al.; mined from patent text by program, amines drawn as free bases though some values may be those of a salt).

melting point | Structure (SMILES)
245 to 250 °C | CC(C)[C@H](NCCC#N)C(=O)O
166 to 171 °C | CCc1c2cccccc-2[nH]c1=O
222 °C | CCCCCC1(C)OCc2c1cnc(C)c2O (stereo unspecified)
160 to 165 °C | O=C1COCc2ccccc2N1
140 to 142 °C | Cc1cc(-c2cc(C(F)(F)F)nn2-c2ccc(S(C)(=O)=O)cc2)ccc1-c1cscn1
159 to 161 °C | CC(=O)c1ccc(Oc2ccc(O)cc2)cc1
> 220 °C | Clc1ccc2c(n1)[nH]c1ccc(Br)cc12
282 °C | O=C(O)c1nn(-c2ccccc2)c2c1CCc1cc(Cl)ccc1-2
120 °C | COCc1cc(-c2ccccc2)c(=O)n2c1-c1sccc1CC2
138 to 139 °C | CCCCOc1c(C(OC(N)=O)C(C)(C)C)n(CC(C)(C)C)c(=O)c2ccc(OCC)cc12 (stereo unspecified)
159 to 162 °C | Cc1c(-c2ccccc2)c(N2CC[C@H](N(C)C)C2)c2oc(-c3ccccc3O)nc2c1C#N
178 to 180 °C | O=S1(=O)NCc2ccccc2N1
138 to 140 °C | O=C1CC2CCSc3ccccc3C2=NN1c1ccccc1 (stereo unspecified)
218 to 219 °C | COc1ccc2cc(C(N)=O)c(N)nc2c1OC
76 to 78 °C | CCCCn1c(=O)n(CCCC2CO2)c(=O)c2c1ncn2C (stereo unspecified)
229 to 232 °C | Nc1cc(O)ccc1/C=C/c1ccc(O)cc1
208 to 210 °C | CCCN1N=C2C(=Cc3ccc(Cl)cc3)CS(=O)(=O)CC2C1c1ccc(Cl)cc1 (stereo unspecified)
105 to 109 °C | CCC(CC(Cc1cccc2ccccc12)C(=O)N[C@@H](Cc1c[nH]cn1)C(=O)N[C@H](C=NNC(N)=O)CC(C)C)c1ccccc1 (stereo partly specified)
117 to 119 °C | Cc1ccccc1NC(=O)c1ccccc1[Si](C)(C)C
171 to 172 °C | Cc1nc2c3c(c(C(=O)N4CC(O)C4)cc2n1C)CCC1(Cc2ccccc2C1)N3
60 °C | O=C(CCNC(=O)C(=Cc1ccccc1)CSC(=O)c1ccccc1)OCc1ccccc1
200 to 201 °C | CCc1cccc(CC)c1NC(=O)NCC(c1ccccc1)c1ccccc1
130 °C | COCCc1nc2c(N)nc3ccccc3c2n1CCOCCN(C)S(=O)(=O)C(C)C

melting point | Structure (SMILES)
85 to 90 °C | CCCn1ncc(C#N)c1N
134 °C | NC(=O)N(O)[C@H]1CC[C@H](Oc2ccccc2)C1
114 to 116 °C | CC(C)(C)OC(=O)NCc1cccc(OCCC2Oc3ccccc3N(Cc3ccc(Cl)cc3)C2=O)c1 (stereo unspecified)
113 to 114 °C | COC(=O)c1cccc2c1Oc1ccccc1N2
97 to 99.5 °C | CC(C)(C)OC(=O)N(C(=O)OC(C)(C)C)C(Cc1c[nH]cn1)C(=O)OCc1ccccc1 (stereo unspecified)
123 to 126 °C | Nc1ccc(Oc2ncc(-c3ccccc3)c(C(F)(F)F)n2)cc1
227 to 229 °C | c1ccc(-c2nnc(Nc3ccc4c(c3)ncn4-c3ccccc3)c3ccccc23)cc1
103 to 104 °C | Cc1nc2ncnn2c(N[C@@H](C)c2ccc(F)cc2)c1Cl
138 to 140 °C | CC(C)(C)OC(=O)NCCOCCNC1(c2ccccc2Cl)C(=O)Nc2ccc(Cl)cc21 (stereo unspecified)
154 to 156 °C | CCOC(=O)[C@@H](O)[C@@H]1OC(=O)c2c(OC)cc(OC)cc21
176 to 177 °C | COc1ccc2cc(-c3oc4ccccc4c3C(O)CC3CCCC3)ccc2c1 (stereo unspecified)
231 to 232 °C | CCOC(=O)c1cnc(=O)n2c1sc1cc(OC)ccc12
202 to 203 °C | CCOC(=O)c1ccc(NC(=O)/C=C/c2cnn(C)c2-c2ccc(F)cc2)cc1
60 to 62 °C | COc1ccc(C(=O)c2ccccc2N)cn1
167 °C | COC(=O)C1=C(N)NC(C)=C([N+](=O)[O-])C1c1ccccc1OCCCCCN1CCN(c2ccccc2OC)CC1 (stereo unspecified)
123 °C | Cc1ccc(S(=O)(=O)NN=CC(Cl)Cl)cc1
155 to 157 °C | CN1CC2(COc3cc4c(cc32)OCO4)c2c(Br)cccc21 (stereo unspecified)
215 to 217 °C | COc1ccc(C(=O)NC(N)=NC(=O)Cn2c(Cl)ccc2Cl)cc1
62 to 63 °C | N#Cc1cc(Br)cc(-c2ccsc2)c1
175 to 176 °C | N=C(Nc1ccc(Cl)cc1)Nc1ncccc1Cc1ccccc1F
81 to 83 °C | N#CCOc1ccc(-c2ccccc2)cc1
280 to 282 °C | CN1CCN(Cc2c(O)c(O)c(O)c3c(=O)cc(-c4ccccc4)oc23)CC1
225 °C | CCC1=C(C(=O)OC)C(c2cccc([N+](=O)[O-])c2)c2c(nc(N3CCOCC3)nc2N2CCOCC2)N1 (stereo unspecified)

melting point | Structure (SMILES)
135 to 140 °C | COc1ccc(CCC(=NNc2ccc(C3=NNC(=O)CC3C)cc2)c2ccc(O)cc2O)cc1OC (stereo unspecified)
203 to 209 °C | Cc1cc2c(cc1Cl)C(c1ccccc1Cl)C(=O)N2 (stereo unspecified)
152 to 153 °C | O=C(Nc1cccc(CN2CCCCC2)c1)C1=Cc2cc(-c3ccccc3)ccc2CC1
188 to 192 °C | CCN1C(=O)C(C)(C)C(=O)N(C)c2cc(CN(CCn3cc(C)c4occc4c3=O)Cc3ncccc3N)ccc21
119 to 120 °C | CSc1nc(CO)c(CO)n1C
93 to 95 °C | CC(=O)Nc1ccc(S(=O)(=O)CCCCNS(=O)(=O)c2ccc(C)cc2)cc1
124 to 126 °C | CCCCCCCCOc1cc2cc(C(=O)OC)c(C(=O)OC)c(-c3ccncc3)c2cc1OC
83 to 87 °C | CC(=O)c1[nH]c(C)nc1C
66 °C | COc1ccc(N=C(C#Cc2ccccc2)N2CCCN(Cc3ccc(C)cc3)CC2)cc1
295 to 296 °C | COc1ccc(N=Nc2ccc(O)c(C(=O)Nc3ccc(OC)c(-c4n[nH]c5cc(C)nn45)c3)c2)cc1
210 to 212 °C | O=C(O)c1cc(-n2c(-c3ccccc3)cc3ccccc32)ccc1O
141 to 143 °C | C=C(C)COC(=O)N1CCN(c2c(C(=O)N3CCN(C)CC3)c3ccccc3n2-c2ccccc2)CC1
207 to 210 °C | N#CN=C1NCCN1CC#CCNC(=O)C(O)(c1ccccc1)C1CCCCC1 (stereo unspecified)
191 to 193 °C | O=C(O)C1Cc2c(cc(Cl)c3c(-c4ccccc4F)noc23)O1 (stereo unspecified)
198 to 199 °C | CCC#C[C@]1(C(F)(F)F)O[C@@H](c2ccccc2)C(=O)Nc2ccc(Cl)cc21 (relative stereo)
283 to 285 °C | Cn1nc2c(N)nc3ccccc3c2c1CC1(F)CCN(S(C)(=O)=O)CC1
82.5 °C | O=Cc1ccc(OCCCc2ccccc2)c([N+](=O)[O-])c1
150 to 157 °C | COC(=O)c1ncccc1C(=O)c1ccc(-n2ccnc2)cc1
219 to 220 °C | CN1CCN(C(=O)c2cc3c4ccccc4n(C)c3s2)CC1
196 to 198 °C | COc1cc(-c2ccccc2Cl)c(Cl)cc1C(=O)N1Cc2ccc(C(=O)N(C)Cc3cccnc3)n2Cc2ccccc21
202 °C | CC(=O)Nc1cccc(-c2nc3ncccc3o2)c1

Structure (SMILES) | melting point
Nc1cccc(-c2ccc(CCN3CCN(C(=O)Cc4ccc(Cl)cc4)CC3)cc2)n1 | 205 °C
CC(C)CC(=O)Nc1cccc(-c2ccnc3c(C(=O)C4CCCC4)cnn23)c1 | 69 to 71 °C
CCCNP(=O)(OC)N1CC(NC(=O)OCc2ccccc2)C1=O (stereo unspecified) | 121 to 123 °C
CC(Cc1c[nH]c2ccccc12)NC(=O)NCC1CCC(c2ccccc2)(N(C)C)CC1 (stereo unspecified) | 140 to 146 °C
